Data on one molecule can be found in patent publication US20090210952A1, “Compositions and Methods Related to Controlled Gene Expression Using Viral Vectors” (priority 2005, published 2009).

One assay relates to GFP expression. The assay is described as follows: DOX concentration required to induce GFP expression in infected cells (fluorescent microscopy). As to conditions: within 48 hours; cells infected with viral particles from pHReGFPO2/EFtet/blas. Format: cell-based. The method, then:
To determine the DOX concentration required to induce gene expression in the single vector system, different concentration of DOX were added to cells infected with viral particles derived from pHReGFPO2/EFtet/blas (titer 2.5×10^6/ml). GFP expression was monitored by fluorescent microscopy.

The subject of another assay is transgenic mice. The assay is described as follows: Induction of eGFP expression in transgenic mice by drinking water containing DOX. Format: in vivo, mouse. The method, then: To determine whether the inducible constructs could induce eGFP expression in vivo, the transgenic mice were fed drinking water containing 100 μg/ml DOX. GFP expression in the body (paw) and PBMCs was analyzed by fluorescent microscopy and FACS analysis before and after the transgenic mice were fed DOX.
A previous study reported that a DOX concentration of 0.1-10 mg/ml in the drinking water of transgenic mice containing a tet regulatable system, was required for inducible gene expression within the animal. To determine the concentration of DOX required for inducible expression of GFP in the transgenic mice described above, the F1 mice from CAG-founder 6# were divided into the four groups which were fed drinking water containing different concentrations of DOX including 0 ug/ml (Group 1), 4 ug/ml (Group 2), 20 ug/ml (Group 3), and 100 ug/ml (Group 4). GFP expression was monitored by visualizing GFP expression in the fingers of the transgenic mouse under UV light after 0, 1, 2, 3, 5 and 18 days of feeding the mice DOX. The intensity of the fluorescent signal in the fingers of the tested mice over the course of the experiment was observed. […] The intensity of the fluorescent signal for Groups 3 and 4 expressed their highest level of GFP expression after 5 days of DOX feeding. In addition, 4 ug/ml of DOX fed to the mice of Group 2 mice was sufficient to induce GFP expression, however the induction was delayed and the intensity was relatively weak as compared to Group 3 and 4 mice. Also of note is that the intensity of a fluorescent signal appeared in a does-dependent manner.
Using the FACS, positive blood cells expressing GFP were isolated and quantified. […] For all mice of Groups 2, 3 and 4, both the number and intensity of GFP expressing cells increased after the mice were fed DOX.
To determine the pharmacokinetics of DOX, 43% of the blood cells expressed GFP from Group 4 mice (after 18 days of DOX feeding), this level was used to set the threshold of 100 percent induction.

The subject of assay [1] is transgenic mice containing a tet regulatable system. As to conditions: previous study; cited from earlier work.

SMILES strings stand for the structures.

For the molecule `C[C@H]1c2cccc(O)c2C(O)=C2C(=O)[C@]3(O)C(O)=C(C(N)=O)C(=O)[C@@H](N(C)C)[C@@H]3[C@@H](O)[C@@H]21` [DOX, doxycycline], the “DOX sufficient to induce GFP expression” value in the assay with GFP expression is given as 15 ng. In the assay on transgenic mice (20 ug/ml and 100 ug/ml DOX (Group 3 and Group 4)), the “time of DOX feeding until mice began to express GFP” value amounted to 1 days. Besides, the “time of DOX feeding to highest level of GFP expression” value in the assay on transgenic mice (20 ug/ml and 100 ug/ml DOX (Groups 3 and 4)) is on record as 5 days. Further, in the assay with transgenic mice (F1 mice from CAG-founder 6#, fingers under UV light, induction delayed, intensity relatively weak), the “DOX concentration in drinking water sufficient to induce GFP expression” value amounted to 4 µg/mL. Besides, the “blood cells expressing GFP” value with transgenic mice (Group 4 (100 ug/ml DOX), after 18 days of DOX feeding, FACS) came out at 43%. For the same molecule, the “DOX concentration in the drinking water required for inducible gene expression” value in assay [1] is 0.1 to 10 mg/mL.
